system: carrageenin-induced oedema; test: Localised carrageenin-induced oedema method (anti-inflammatory action); assay type: in vivo, rat; conditions: 50 mg/kg oral, 1st hour
Protocol: a. Localised carrageenin-induced oedema method
A 1% solution of carrageenin (0.1 ml) is injected into the metatarsal flexor muscles of the right hand rear paw of the rat at time "0".
The animals of the treated group also receive, by the oral route, 100 mg/kg of the compound to be tested, respectively 1 hour before and at the same time as the injection of the phlogogenic agent, then 1 hour and 21/2 hours after. The measurements made with the aid of a micrometer at the time "0" and 1 hour, 2 hours, 3 hours and 5 hours after the administration of the carrageenin, enable one to determine, in relation to time, the percentage of anti-inflammatory activity in relation to the control group.
a. method of localised carrageenin-induced oedema
The oral administration of […] of the derivatives to be tested produces a clear reduction of the inflammatory reaction provoked.

Compared with `Clc1ccc(N2CCN(CC=C3CN=C(NC4CCCCC4)S3)CC2)cc1` [Derivative No. 34, 5-[4-β-(parachlorophenyl)piperazinoethylidene] 2-cyclohexylamino Δ^2-thiazoline], `C(CN1CCN(c2ccccc2)CC1)=C1CN=C(NC2CCCCC2)S1` [Derivative No. 35, 2-cyclohexylamino 5-[4-β-(phenyl)piperazinoethylidene] Δ^2-thiazoline] is higher in “reduction of the inflammatory reaction, 1st hour” value: 40 for the first, 45 for the second.

With `FC(F)(F)c1cccc(N2CCN(CC=C3CN=C(NC4CCCCC4)S3)CC2)c1` [Derivative No. 36] the “reduction of the inflammatory reaction, 1st hour” value was 46.

same assay, conditions: 50 mg/kg oral, 2nd hour

First: Clc1ccc(N2CCN(CC=C3CN=C(NC4CCCCC4)S3)CC2)cc1 [Derivative No. 34, 5-[4-β-(parachlorophenyl)piperazinoethylidene] 2-cyclohexylamino Δ^2-thiazoline]
Second: C(CN1CCN(c2ccccc2)CC1)=C1CN=C(NC2CCCCC2)S1 [Derivative No. 35, 2-cyclohexylamino 5-[4-β-(phenyl)piperazinoethylidene] Δ^2-thiazoline]
The “reduction of the inflammatory reaction, 2nd hour” value of the first is lower: 44 for the first, 46 for the second.

For `FC(F)(F)c1cccc(N2CCN(CC=C3CN=C(NC4CCCCC4)S3)CC2)c1` [Derivative No. 36], the “reduction of the inflammatory reaction, 2nd hour” value was 50.

same assay, conditions: 50 mg/kg oral, 3rd hour

First: Clc1ccc(N2CCN(CC=C3CN=C(NC4CCCCC4)S3)CC2)cc1 [Derivative No. 34, 5-[4-β-(parachlorophenyl)piperazinoethylidene] 2-cyclohexylamino Δ^2-thiazoline]
Second: C(CN1CCN(c2ccccc2)CC1)=C1CN=C(NC2CCCCC2)S1 [Derivative No. 35, 2-cyclohexylamino 5-[4-β-(phenyl)piperazinoethylidene] Δ^2-thiazoline]
The “reduction of the inflammatory reaction, 3rd hour” value of the first is lower: 50 for the first, 55 for the second.

For `FC(F)(F)c1cccc(N2CCN(CC=C3CN=C(NC4CCCCC4)S3)CC2)c1` [Derivative No. 36], the “reduction of the inflammatory reaction, 3rd hour” value was 59.

same assay, conditions: 50 mg/kg oral, 4th hour

Going from `Clc1ccc(N2CCN(CC=C3CN=C(NC4CCCCC4)S3)CC2)cc1` [Derivative No. 34, 5-[4-β-(parachlorophenyl)piperazinoethylidene] 2-cyclohexylamino Δ^2-thiazoline] to `C(CN1CCN(c2ccccc2)CC1)=C1CN=C(NC2CCCCC2)S1` [Derivative No. 35, 2-cyclohexylamino 5-[4-β-(phenyl)piperazinoethylidene] Δ^2-thiazoline], the “reduction of the inflammatory reaction, 4th hour” value rises from 53 to 57.

With `FC(F)(F)c1cccc(N2CCN(CC=C3CN=C(NC4CCCCC4)S3)CC2)c1` [Derivative No. 36] the “reduction of the inflammatory reaction, 4th hour” value was 61.

same assay, conditions: 50 mg/kg oral, 5th hour

First: Clc1ccc(N2CCN(CC=C3CN=C(NC4CCCCC4)S3)CC2)cc1 [Derivative No. 34, 5-[4-β-(parachlorophenyl)piperazinoethylidene] 2-cyclohexylamino Δ^2-thiazoline]
Second: C(CN1CCN(c2ccccc2)CC1)=C1CN=C(NC2CCCCC2)S1 [Derivative No. 35, 2-cyclohexylamino 5-[4-β-(phenyl)piperazinoethylidene] Δ^2-thiazoline]
The “reduction of the inflammatory reaction, 5th hour” value of the first is lower: 55 for the first, 58 for the second.

In the case of `FC(F)(F)c1cccc(N2CCN(CC=C3CN=C(NC4CCCCC4)S3)CC2)c1` [Derivative No. 36], the “reduction of the inflammatory reaction, 5th hour” value is reported as 62.

system: not listed separately; test: Triton test (hypocholesterolemic action); assay type: in vivo, rat; conditions: 50 mg/kg oral
Protocol: The intravenous injection of Triton W-R 1339 (an alkylaryl polyetheralcohol sold by Rohm and Haas) enables one to artifically increase, in the rat, certain lipidic fractions of serum and thus to evalute the hypocholesterolemic action of the compounds of the invention. […]
Eighteen hours later a blood sample is taken and the β-lipoproteins, the free cholesterol and the cholesterol are determined.
This test, which enables one to evaluate the hypocholesterolemic action of the derivatives to be tested, on serum levels of certain lipid fractions, has shown the remarkable effect of the compounds according to the invention.

For `Clc1ccc(N2CCN(CC=C3CN=C(NC4CCCCC4)S3)CC2)cc1` [Derivative No. 34, 5-[4-β-(parachlorophenyl)piperazinoethylidene] 2-cyclohexylamino Δ^2-thiazoline], the “reduction of free cholesterol and total cholesterol levels” value was ~34%.
In the case of `C(CN1CCN(c2ccccc2)CC1)=C1CN=C(NC2CCCCC2)S1` [Derivative No. 35, 2-cyclohexylamino 5-[4-β-(phenyl)piperazinoethylidene] Δ^2-thiazoline], the “reduction of free cholesterol and total cholesterol levels” value is reported as ~29%.
In the case of `FC(F)(F)c1cccc(N2CCN(CC=C3CN=C(NC4CCCCC4)S3)CC2)c1` [Derivative No. 36], the “reduction of free cholesterol and total cholesterol levels” value is reported as ~27%.

system: not listed separately; test: LD50/24 hours by the method of Miller & Tainter, intravenous route (derivatives 34 to 38, species not restated); conditions: in vivo, read-out: LD50 /24 hours /kg of body weight

`Clc1ccc(N2CCN(CC=C3CN=C(NC4CCCCC4)S3)CC2)cc1` [Derivative No. 34, 5-[4-β-(parachlorophenyl)piperazinoethylidene] 2-cyclohexylamino Δ^2-thiazoline] and `C(CN1CCN(c2ccccc2)CC1)=C1CN=C(NC2CCCCC2)S1` [Derivative No. 35, 2-cyclohexylamino 5-[4-β-(phenyl)piperazinoethylidene] Δ^2-thiazoline] are within 1.5-fold of each other in LD50 at 24 h: 35 mg/kg for the first, 48 mg/kg for the second.

Work on `FC(F)(F)c1cccc(N2CCN(CC=C3CN=C(NC4CCCCC4)S3)CC2)c1` [Derivative No. 36] yielded an LD50 at 24 h of 65 mg/kg.

system: ovalbumin-induced oedema; test: Generalised ovalbumin-induced oedema method (anti-inflammatory action); assay type: in vivo, rats; conditions: 50 mg/kg oral, 1st hour
Protocol: b. Generalised ovalbumin-induced oedema method
A simultaneous intraperitoneal injection of 1 ml of ovalbumin and of 0.5 ml of an aqueous solution of Evans Blue at 1 ml per thousand by weight is administered to rats.
For comparative purposes, 100 mg of the compound to be tested is administered orally to the animals of the group to be treated, 1 hour before and at the same time as the ovalbumin. The intensity of the phenomenon thus provoked in noted by a FIG. 1 to 5 according to the intensity of the inflammatory syndrome.
Thus one determines the average of the oedematic intensity and the percentage of decrease of the oedematic reaction in relation to the control animals.
b. method of generalised ovalbumin-induced oedema
The percentages of reduction of oedematic reaction, in the test animals, in subjects treated by the oral route by the administration of […] of the compound to be tested show the clear anti-inflammatory action of the compounds according to the invention.

Compared with `Clc1ccc(N2CCN(CC=C3CN=C(NC4CCCCC4)S3)CC2)cc1` [Derivative No. 34, 5-[4-β-(parachlorophenyl)piperazinoethylidene] 2-cyclohexylamino Δ^2-thiazoline], `C(CN1CCN(c2ccccc2)CC1)=C1CN=C(NC2CCCCC2)S1` [Derivative No. 35, 2-cyclohexylamino 5-[4-β-(phenyl)piperazinoethylidene] Δ^2-thiazoline] is higher in “percentage of reduction of oedematic reaction, 1st hour” value: 58% for the first, 62% for the second.

In the case of `FC(F)(F)c1cccc(N2CCN(CC=C3CN=C(NC4CCCCC4)S3)CC2)c1` [Derivative No. 36], the “percentage of reduction of oedematic reaction, 1st hour” value is reported as 55%.

same assay, conditions: 50 mg/kg oral, 2nd hour

Compared with `Clc1ccc(N2CCN(CC=C3CN=C(NC4CCCCC4)S3)CC2)cc1` [Derivative No. 34, 5-[4-β-(parachlorophenyl)piperazinoethylidene] 2-cyclohexylamino Δ^2-thiazoline], `C(CN1CCN(c2ccccc2)CC1)=C1CN=C(NC2CCCCC2)S1` [Derivative No. 35, 2-cyclohexylamino 5-[4-β-(phenyl)piperazinoethylidene] Δ^2-thiazoline] is higher in “percentage of reduction of oedematic reaction, 2nd hour” value: 62% for the first, 65% for the second.

In the case of `FC(F)(F)c1cccc(N2CCN(CC=C3CN=C(NC4CCCCC4)S3)CC2)c1` [Derivative No. 36], the “percentage of reduction of oedematic reaction, 2nd hour” value is reported as 61%.

system: not listed separately; test: Propyl-thiouracil test (hypocholesterolemic action); assay type: in vivo, rats; conditions: 50 mg/kg; control 0.25
Protocol: a. Propyl-thiouracil test (RANNEY et Coll. J. Pharmacol. Exper. Therap. 1963, 142, 132-136)
The administration of propyl-thiouracil to adult rats renders them hypercholesterolemic; in effect, the plasmatic cholesterol rate has increased by about 15%. The testing is carried out on two groups of rats, the control group receiving the propyl-thiouracil only whilst the treated group also receives 100 mg/kg of the compounds to be tested, by the oral route.
On the 11th day of the experiment, the blood samples are taken and the β-lipoproteins, the free cholesterol and the total cholesterol measured.
a. Propyl-thiouracil test (Ranney et Coll. J. Pharmacol. Exper. Therap. 1963, 142, 132-136)
This test has shown the clearly favourable action of the derivatives according to the invention, at a dose of […].

First: Clc1ccc(N2CCN(CC=C3CN=C(NC4CCCCC4)S3)CC2)cc1 [Derivative No. 34, 5-[4-β-(parachlorophenyl)piperazinoethylidene] 2-cyclohexylamino Δ^2-thiazoline]
Second: C(CN1CCN(c2ccccc2)CC1)=C1CN=C(NC2CCCCC2)S1 [Derivative No. 35, 2-cyclohexylamino 5-[4-β-(phenyl)piperazinoethylidene] Δ^2-thiazoline]
The Free cholesterol of the first is higher: 0.13 for the first, 0.11 for the second.

Work on `FC(F)(F)c1cccc(N2CCN(CC=C3CN=C(NC4CCCCC4)S3)CC2)c1` [Derivative No. 36] yielded a Free cholesterol of 0.13.

same assay, conditions: 50 mg/kg; control 0.89

Compared with `Clc1ccc(N2CCN(CC=C3CN=C(NC4CCCCC4)S3)CC2)cc1` [Derivative No. 34, 5-[4-β-(parachlorophenyl)piperazinoethylidene] 2-cyclohexylamino Δ^2-thiazoline], `C(CN1CCN(c2ccccc2)CC1)=C1CN=C(NC2CCCCC2)S1` [Derivative No. 35, 2-cyclohexylamino 5-[4-β-(phenyl)piperazinoethylidene] Δ^2-thiazoline] is higher in Total cholesterol: 0.55 for the first, 0.61 for the second.

Compound `FC(F)(F)c1cccc(N2CCN(CC=C3CN=C(NC4CCCCC4)S3)CC2)c1` [Derivative No. 36] has a Total cholesterol of 0.63.

From patent US4018786A, “2-Aminothiazolines and a process for preparation thereof” (Centre d'Etudes pour l'Industrie Pharmaceutique, priority 1974, dated 1977)
